# Source: patent US6610744B2, “Methods of treatment with compounds having RARα receptor specific or selective activity” (Allergan, Inc., priority 1995, dated 2003)
# Tested on: ovarian tumor cells
# Assay: EDR assay on cells from solid tumors of patients
# Format: cell-based, human
# Conditions: FIG. 4; tumors from 4 patients, four days with drug
# Procedure: Freshly resected solid tumor biopsies were received within 24 hours of surgery. Species were processed for assay after retaining a portion of the tumor for paraffin embedding and histopathologic confirmation of specimen viability and tissue diagnosis. The remaining specimen was dissociated into small fragments using sterile scissors. The small tissue fragments were then exposed to collagenase and DNAase for 2 hours with mixing a CO2 incubator in order to release the tumor cells from the connective tissue stroma. The resulting cell suspension was washed, and cell counts determined from a cytospin preparation. Tumor cells were resuspended at 40,000 cells per ml in 0.3% agarose in RMPI 1640 supplemented with 15% FCS, glutamine and antibiotics, and 0.5 ml were plated into each well of a 24 well plate over 0.5 ml layer of 0.5% agarose. These culture conditions prevent cell adherence, thereby allowing only transformed cells to proliferate. Additionally, the cells grow into three dimensional spheroids, recapitulating their in vivo morphology.
# Retinoid drugs were added 24 hours after plating to insure specimen reequilibration to a growth environment after the rigors of transport and processing. […] After the agarose-cell suspension was liquefied at 90° C., cells were harvested onto glass fiber filters, which were counted in 5 ml scintillation fluid using a Beckman 6500 liquid scintillation counter. […]
compound,measurement,value
CC1(C)CCC(C)(C)c2cc(C(=O)Nc3ccc(C(=O)O)c(F)c3)ccc21 [Compound 2],ovarian tumor cell proliferation,inhibits this tumor cell proliferation in a concentration dependent manner
